Assay results: US8143293B2, “Kinase inhibitors useful for the treatment of myleoprolific diseases and other proliferative diseases” (Deciphera Pharmaceuticals, LLC, priority 2007, dated 2012)

Legend:
[1] = biological target: T1, BaF3 cells transfected with T315I p210 BCR-Abl (Homo sapiens, UniProt P00519, T315I, cells depend on it); assay: Ba/F3 p210 T315I whole cell proliferation assay; assay type: cell-based; settings: 72 hours, Cell Titer Blue; read-out: Whole Cell Antiproliferation IC50, Ba/F3 p210 T315I whole cell proliferation assay
T1 construct: fused on or other part: P11274 (Breakpoint cluster region protein)

[2] = biological target: T2, c-Kit kinase (SEQ ID NO:9) (Homo sapiens, UniProt P10721); assay: C-Kit kinase (SEQ ID NO:9) assay, pyruvate kinase/lactate dehydrogenase coupled; settings: <2 min preincubation, ATP 200 μM; read-out: Biochemical IC50, c-Kit Enzyme Assay
T2 construct: contained c-Kit (cKIT residues T544-V976, from ProQinase, 5.4 nM); purchased ProQinase
T2 sequence (P10721 with tags, fused parts or gaps): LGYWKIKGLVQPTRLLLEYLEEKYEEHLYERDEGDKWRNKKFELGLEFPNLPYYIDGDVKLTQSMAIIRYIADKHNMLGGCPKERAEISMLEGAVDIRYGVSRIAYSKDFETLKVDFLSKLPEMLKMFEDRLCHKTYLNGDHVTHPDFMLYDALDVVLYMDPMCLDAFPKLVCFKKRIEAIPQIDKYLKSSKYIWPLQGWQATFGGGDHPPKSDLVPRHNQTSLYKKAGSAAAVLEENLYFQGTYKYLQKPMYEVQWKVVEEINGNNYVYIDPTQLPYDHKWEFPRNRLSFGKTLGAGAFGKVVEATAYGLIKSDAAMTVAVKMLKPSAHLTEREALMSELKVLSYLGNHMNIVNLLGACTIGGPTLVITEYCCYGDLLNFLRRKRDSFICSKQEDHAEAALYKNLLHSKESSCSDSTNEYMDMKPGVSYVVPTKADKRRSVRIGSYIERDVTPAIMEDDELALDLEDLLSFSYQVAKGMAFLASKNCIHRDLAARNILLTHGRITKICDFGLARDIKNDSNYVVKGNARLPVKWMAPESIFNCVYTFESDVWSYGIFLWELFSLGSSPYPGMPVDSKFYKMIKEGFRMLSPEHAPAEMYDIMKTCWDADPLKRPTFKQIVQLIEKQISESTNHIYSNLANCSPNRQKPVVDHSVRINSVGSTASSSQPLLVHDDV
Protocol: C-Kit Kinase (SEQ ID NO:9) Assay
Activity of c-Kit kinase (SEQ ID NO:9) was determined by following the production of ADP from the kinase reaction through coupling with the pyruvate kinase/lactate dehydrogenase system (e.g., Schindler, et al. Science (2000) 289, 1938-1942). In this assay, the oxidation of NADH (thus the decrease at A340 nm) was continuously monitored spectrophometrically. The reaction mixture (100 μl) contained c-Kit (cKIT residues T544-V976, from ProQinase, 5.4 nM), polyE4Y (1 mg/ml), MgCl2 (10 mM), pyruvate kinase (4 units), lactate dehydrogenase (0.7 units), phosphoenol pyruvate (1 mM), and NADH (0.28 mM) in 90 mM Tris buffer containing 0.2% octyl-glucoside and 1% DMSO, pH 7.5. Test compounds were incubated with […] (SEQ ID NO:9) and other reaction reagents at 22° C. for <2 min before ATP (200 μM) was added to start the reaction. The absorption at 340 nm was monitored continuously for 0.5 hours at 30° C. on Polarstar Optima plate reader (BMG). The reaction rate was calculated using the 0 to 0.5 h time frame. Percent inhibition was obtained by comparison of reaction rate with that of a control (i.e. with no test compound). IC50 values were calculated from a series of percent inhibition values determined at a range of inhibitor concentrations using software routines as implemented in the GraphPad Prism software package.

[3] = biological target: T3, T315I Abl kinase (SEQ ID NO:2) (Homo sapiens, UniProt P00519, T315I); assay: T315I Abl kinase (SEQ ID NO:2) assay, pyruvate kinase/lactate dehydrogenase coupled; settings: 1 h preincubation, ATP 500 μM; read-out: Biochemical IC50, Abl T315I Enzyme Assay
T3 construct: purchased deCode Genetics
T3 sequence (P00519 with tags, fused parts or gaps T315I): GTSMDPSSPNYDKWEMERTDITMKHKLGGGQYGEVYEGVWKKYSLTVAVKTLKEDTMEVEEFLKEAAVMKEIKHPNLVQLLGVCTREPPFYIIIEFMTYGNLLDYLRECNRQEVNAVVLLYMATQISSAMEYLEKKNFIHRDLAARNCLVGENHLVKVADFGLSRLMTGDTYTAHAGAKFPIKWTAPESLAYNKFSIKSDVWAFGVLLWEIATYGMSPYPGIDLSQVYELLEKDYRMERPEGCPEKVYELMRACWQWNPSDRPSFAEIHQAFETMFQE
Protocol: Abl Kinase (SEQ ID NO:2) Assay
Activity of T315I Abl kinase (SEQ ID NO:2) was determined by following the production of ADP from the kinase reaction through coupling with the pyruvate kinase/lactate dehydrogenase system (e.g., Schindler, et al. Science (2000) 289, 1938-1942). In this assay, the oxidation of NADH (thus the decrease at A340 nm) was continuously monitored spectrophometrically. The reaction mixture (100 μl) contained Abl kinase (4.4 nM, […] Abl from deCode Genetics), peptide substrate (EAIYAAPFAKKK, 0.2 mM), MgCl2 (10 mM), pyruvate kinase (4 units), lactate dehydrogenase (0.7 units), phosphoenol pyruvate (1 mM), and NADH (0.28 mM) in 90 mM Tris buffer containing 0.2% octyl-glucoside and 1% DMSO, pH 7.5. Test compounds were incubated with T315I Abl (SEQ ID NO:2) and other reaction reagents at 30° C. for 1 h before ATP (500 μM) was added to start the reaction. The absorption at 340 nm was monitored continuously for 2 hours at 30° C. on Polarstar Optima plate reader (BMG). The reaction rate was calculated using the 1.0 to 2.0 h time frame. Percent inhibition was obtained by comparison of reaction rate with that of a control (i.e. with no test compound). IC50 values were calculated from a series of percent inhibition values determined at a range of inhibitor concentrations using software routines as implemented in the GraphPad Prism software package.

A GI50 [1] of under 100 nM, an IC50 [2] of under 100 nM and an IC50 [3] of under 100 nM were found for “1-(2-fluoro-4-(2-(1-methyl-1H-pyrazol-4-yl)pyridin-4-yloxy)phenyl)-3-(3-(1-methylcyclopentyl)isoxazol-5-yl)urea [Example 14]” in this work.
A GI50 [1] of under 100 nM, an IC50 [2] of under 100 nM and an IC50 [3] of under 100 nM were found for `Cn1cc(-c2cc(Oc3ccc(NC(=O)Nc4cc(C(C)(C)C)no4)c(F)c3)ccn2)cn1` [Example 1, 1-(3-t-butylisoxazol-5-yl)-3-(2-fluoro-4-(2-(1-methyl-1H-pyrazol-4-yl)pyridin-4-yloxy)phenyl)urea] in this work.
A GI50 [1] of under 100 nM, an IC50 [2] of under 100 nM and an IC50 [3] of under 100 nM were found for `Cn1cc(-c2cc(Oc3ccc(NC(=O)Nc4cc(C(C)(C)C)nn4C)c(F)c3)ccn2)cn1` [Example 2, 1-(3-t-butyl-1-methyl-1H-pyrazol-5-yl)-3-(2-fluoro-4-(2-(1-methyl-1H-pyrazol-4-yl)pyridin-4-yloxy)phenyl)urea] in this work.
A GI50 [1] of under 100 nM, an IC50 [2] of under 100 nM and an IC50 [3] of under 100 nM were found for `Cn1cc(-c2cc(Oc3ccc(NC(=O)Nc4cccc(C(F)(F)F)c4)c(F)c3)ccn2)cn1` [Example 3, 1-(2-fluoro-4-(2-(1-methyl-1H-pyrazol-4-yl)pyridin-4-yloxy)phenyl)-3-(3-(trifluoromethyl)phenyl)urea] in this work.
A GI50 [1] of under 100 nM, an IC50 [2] of under 100 nM and an IC50 [3] of under 100 nM were found for `Cn1cc(-c2cc(Oc3ccc(NC(=O)Nc4cnn(C(C)(C)C)c4)c(F)c3)ccn2)cn1` [Example 5, 1-(1-t-butyl-1H-pyrazol-4-yl)-3-(2-fluoro-4-(2-(1-methyl-1H-pyrazol-4-yl)pyridin-4-yloxy)phenyl)urea] in this work.
A GI50 [1] of under 100 nM, an IC50 [2] of under 100 nM and an IC50 [3] of under 100 nM were found for `Cn1cc(-c2cc(Oc3ccc(NC(=O)Nc4cncc(C(F)(F)F)c4)cc3)ccn2)cn1` [Example 6, 1-(4-(2-(1-methyl-1H-pyrazol-4-yl)pyridin-4-yloxy)phenyl)-3-(5-(trifluoromethyl)pyridin-3-yl)urea] in this work.
A GI50 [1] of under 100 nM, an IC50 [2] of under 100 nM and an IC50 [3] of under 100 nM were found for `Cn1cc(-c2cc(Oc3ccc(NC(=O)Nc4cnn(C(C)(C)C)c4)c(F)c3F)ccn2)cn1` [Example 8, 1-(1-tert-butyl-1H-pyrazol-4-yl)-3-(2,3-difluoro-4-(2-(1-methyl-1H-pyrazol-4-yl)pyridin-4-yloxy)phenyl)urea] in this work.
A GI50 [1] of under 1000 nM, an IC50 [2] of under 100 nM and an IC50 [3] of under 100000 nM were found for `Cn1cc(-c2cc(Oc3ccc(NC(=O)Nc4cnn(C(C)(C)C)c4C(F)(F)F)c(F)c3)ccn2)cn1` [Example 9, 1-(1-tert-butyl-5-(trifluoromethyl)-1H-pyrazol-4-yl)-3-(2-fluoro-4-(2-(1-methyl-1H-pyrazol-4-yl)pyridin-4-yloxy)phenyl)urea] in this work.
A GI50 [1] of under 1000 nM, an IC50 [2] of under 100 nM and an IC50 [3] of under 10000 nM were found for `Cc1c(NC(=O)Nc2ccc(Oc3ccnc(-c4cnn(C)c4)c3)cc2F)cnn1C(C)(C)C` [Example 10, 1-(1-tert-butyl-5-methyl-1H-pyrazol-4-yl)-3-(2-fluoro-4-(2-(1-methyl-1H-pyrazol-4-yl)pyridin-4-yloxy)phenyl)urea] in this work.
A GI50 [1] of under 100 nM, an IC50 [2] of under 100 nM and an IC50 [3] of under 100 nM were found for `Cn1cc(-c2cc(Oc3ccc(NC(=O)Nc4nnc(C(C)(C)C)s4)c(F)c3)ccn2)cn1` [Example 11, 1-(5-tert-butyl-1,3,4-thiadiazol-2-yl)-3-(2-fluoro-4-(2-(1-methyl-1H-pyrazol-4-yl)pyridin-4-yloxy)phenyl)urea] in this work.
A GI50 [1] of under 100 nM, an IC50 [2] of under 100 nM and an IC50 [3] of under 100 nM were found for `CN(C)CCn1nc(C(C)(C)C)cc1NC(=O)Nc1ccc(Oc2ccnc(-c3cnn(C)c3)c2)cc1F` [Example 12, 1-(3-tert-butyl-1-(2-(dimethylamino)ethyl)-11H-pyrazol-5-yl)-3-(2-fluoro-4-(2-(1-methyl-1H-pyrazol-4-yl)pyridin-4-yloxy)phenyl)urea] in this work.
A GI50 [1] of under 100 nM, an IC50 [2] of under 100 nM and an IC50 [3] of under 100 nM were found for `Cn1cc(-c2cc(Oc3ccc(NC(=O)Nc4cnn(C5CCCC5)c4)c(F)c3)ccn2)cn1` [Example 15, 1-(1-cyclopentyl-1H-pyrazol-4-yl)-3-(2-fluoro-4-(2-(1-methyl-1H-pyrazol-4-yl)pyridin-4-yloxy)phenyl)urea] in this work.
A GI50 [1] of under 100 nM, an IC50 [2] of under 100 nM and an IC50 [3] of under 100 nM were found for `Cn1cc(-c2cc(Oc3ccc(NC(=O)Nc4cncc(C(F)(F)F)c4)c(F)c3)ccn2)cn1` [Example 21, 1-(2-fluoro-4-(2-(1-methyl-1H-pyrazol-4-yl)pyridin-4-yloxy)phenyl)-3-(5-(trifluoromethyl)pyridin-3-yl)urea] in this work.
A GI50 [1] of under 100 nM, an IC50 [2] of under 100 nM and an IC50 [3] of under 100 nM were found for `CC(C)c1cncc(NC(=O)Nc2ccc(Oc3ccnc(-c4cnn(C)c4)c3)cc2F)c1` [Example 22, 1-(2-fluoro-4-(2-(1-methyl-1H-pyrazol-4-yl)pyridin-4-yloxy)phenyl)-3-(5-isopropylpyridin-3-yl)urea] in this work.
A GI50 [1] of under 100 nM, an IC50 [2] of under 100 nM and an IC50 [3] of under 100 nM were found for `Cn1cc(-c2cc(Oc3ccc(NC(=O)Nc4cc(C(C)(C)C)no4)c(F)c3F)ccn2)cn1` [Example 25, 1-(3-tert-butylisoxazol-5-yl)-3-(2,3-difluoro-4-(2-(1-methyl-1H-pyrazol-4-yl)pyridin-4-yloxy)phenyl)urea] in this work.
A GI50 [1] of under 100 nM, an IC50 [2] of under 100 nM and an IC50 [3] of under 100 nM were found for `Cn1cc(-c2cc(Oc3ccc(NC(=O)Nc4cc(C(F)(F)F)c[nH]c4=O)c(F)c3)ccn2)cn1` [Example 27, 1-(2-fluoro-4-(2-(1-methyl-1H-pyrazol-4-yl)pyridin-4-yloxy)phenyl)-3-(2-oxo-5-(trifluoromethyl)-1,2-dihydropyridin-3-yl)urea] in this work.
A GI50 [1] of under 1000 nM, an IC50 [2] of under 100 nM and an IC50 [3] of under 100 nM were found for `Cc1oc(C(C)(C)C)cc1NC(=O)Nc1ccc(Oc2ccnc(-c3cnn(C)c3)c2)cc1F` [Example 28, 1-(5-tert-butyl-2-methylfuran-3-yl)-3-(2-fluoro-4-(2-(1-methyl-1H-pyrazol-4-yl)pyridin-4-yloxy)phenyl)urea] in this work.
A GI50 [1] of under 1000 nM, an IC50 [2] of under 100000 nM and an IC50 [3] of under 100000 nM were found for `Cn1cc(-c2cc(Oc3ccc(NC(=O)Nc4cnc(C(C)(C)C)nc4N4CCOCC4)c(F)c3)ccn2)cn1` [Example 41, 1-(2-tert-butyl-4-morpholinopyrimidin-5-yl)-3-(2-fluoro-4-(2-(1-methyl-1H-pyrazol-4-yl)pyridin-4-yloxy)phenyl)urea] in this work.
A GI50 [1] of under 100 nM, an IC50 [2] of under 100 nM and an IC50 [3] of under 100 nM were found for `Cn1cc(-c2cc(Oc3ccc(NC(=O)Nc4cc(C(F)(F)F)cnc4-c4cnn(C)c4)c(F)c3)ccn2)cn1` [Example 42, 1-(2-fluoro-4-(2-(1-methyl-1H-pyrazol-4-yl)pyridin-4-yloxy)phenyl)-3-(2-(1-methyl-1H-pyrazol-4-yl)-5-(trifluoromethyl)pyridin-3-yl)urea] in this work.
